Results taken from PubChem BioAssay AID1963841 (Molecular Pharmacology Branch, DTP, NCI, 2024).

Test system: 439559-082-T-J2-PDC spheroid viability
Assay: Anticancer human tumor 439559-082-T-J2-PDC patient-derived colon adenocarcinoma cell line growth inhibition [POLQ]
Conditions: spheroids with HUVEC and MSC; for IC50: curve of first compound; for viability, T/C: stronger effect = lower value
Outline: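 PDC + HUVEC + MSC complex spheroids; POLQ inhibitors ± partner drugs; top conc. at/near clinical Cmax, else 10 microM (SN-38 1 microM), half-log dilutions; 37 degrees C, 5% CO2.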
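Also: spheroids exposed to compounds for seven days before readout.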
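For viability, T/C in this document: 100% = DMSO vehicle control viability.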

Question: With `CCc1cc2c(N3CCc4c(cc(Cn5ccnc5)cc4-c4cn(C)nc4C(F)(F)F)C3=O)ccnc2c(OC)n1` + Nc1ccc(C#CCN(C(=O)Cc2ncc(C(F)(F)F)cc2C(F)(F)F)c2ccc(F)cc2)nn1 as the compound, how does the IC50 (second compound 0.0316 µM) read?
Answer: > 10 µM

Question: And the IC50 (second compound 0.1 µM)?
Answer: > 10 µM

Question: What about the IC50 (second compound 0.316 µM) of the same compound?
Answer: > 10 µM

Question: And the IC50 (second compound 1 µM)?
Answer: > 10 µM

Question: And the IC50 (second compound 3.16 µM)?
Answer: > 10 µM

Question: What about the IC50 (second compound 10 µM) of the same compound?
Answer: > 10 µM

Question: And the viability, T/C (second compound 0.0316 µM, first compound 0.0316 µM)?
Answer: 98%

Question: What about the viability, T/C (second compound 0.0316 µM, first compound 0.1 µM) of the same compound?
Answer: 94.8%

Question: And the viability, T/C (second compound 0.0316 µM, first compound 0.316 µM)?
Answer: 93.3%

Question: And the viability, T/C (second compound 0.0316 µM, first compound 1 µM)?
Answer: 89.9%

Question: What about the viability, T/C (second compound 0.0316 µM, first compound 3.16 µM) of the same compound?
Answer: 83%

Question: What about the viability, T/C (second compound 0.0316 µM, first compound 10 µM) of the same compound?
Answer: 84%

Question: What about the viability, T/C (second compound 0.1 µM, first compound 0.0316 µM) of the same compound?
Answer: 90.6%

Question: And the viability, T/C (second compound 0.1 µM, first compound 0.1 µM)?
Answer: 101%

Question: And the viability, T/C (second compound 0.1 µM, first compound 0.316 µM)?
Answer: 86%

Question: What about the viability, T/C (second compound 0.1 µM, first compound 1 µM) of the same compound?
Answer: 86.2%

Question: What about the viability, T/C (second compound 0.1 µM, first compound 3.16 µM) of the same compound?
Answer: 96.5%

Question: What about the viability, T/C (second compound 0.1 µM, first compound 10 µM) of the same compound?
Answer: 95.6%

Question: And the viability, T/C (second compound 0.316 µM, first compound 0.0316 µM)?
Answer: 102%

Question: What about the viability, T/C (second compound 0.316 µM, first compound 0.1 µM) of the same compound?
Answer: 105%

Question: And the viability, T/C (second compound 0.316 µM, first compound 0.316 µM)?
Answer: 86.5%

Question: And the viability, T/C (second compound 0.316 µM, first compound 1 µM)?
Answer: 97.2%

Question: What about the viability, T/C (second compound 0.316 µM, first compound 3.16 µM) of the same compound?
Answer: 93.7%

Question: What about the viability, T/C (second compound 0.316 µM, first compound 10 µM) of the same compound?
Answer: 86.9%

Question: What about the viability, T/C (second compound 1 µM, first compound 0.0316 µM) of the same compound?
Answer: 88.7%

Question: And the viability, T/C (second compound 1 µM, first compound 0.1 µM)?
Answer: 95.8%

Question: What about the viability, T/C (second compound 1 µM, first compound 0.316 µM) of the same compound?
Answer: 86.5%

Question: What about the viability, T/C (second compound 1 µM, first compound 1 µM) of the same compound?
Answer: 88.5%

Question: And the viability, T/C (second compound 1 µM, first compound 3.16 µM)?
Answer: 95.1%

Question: And the viability, T/C (second compound 1 µM, first compound 10 µM)?
Answer: 80.5%

Question: What about the viability, T/C (second compound 3.16 µM, first compound 0.0316 µM) of the same compound?
Answer: 104%

Question: And the viability, T/C (second compound 3.16 µM, first compound 0.1 µM)?
Answer: 102%

Question: And the viability, T/C (second compound 3.16 µM, first compound 0.316 µM)?
Answer: 95%

Question: What about the viability, T/C (second compound 3.16 µM, first compound 1 µM) of the same compound?
Answer: 82.7%

Question: And the viability, T/C (second compound 3.16 µM, first compound 3.16 µM)?
Answer: 88.8%

Question: What about the viability, T/C (second compound 3.16 µM, first compound 10 µM) of the same compound?
Answer: 78.7%

Question: What about the viability, T/C (second compound 10 µM, first compound 0.0316 µM) of the same compound?
Answer: 98.9%

Question: And the viability, T/C (second compound 10 µM, first compound 0.1 µM)?
Answer: 91.8%

Question: What about the viability, T/C (second compound 10 µM, first compound 0.316 µM) of the same compound?
Answer: 92.2%

Question: What about the viability, T/C (second compound 10 µM, first compound 1 µM) of the same compound?
Answer: 93.9%

Question: And the viability, T/C (second compound 10 µM, first compound 3.16 µM)?
Answer: 91.7%

Question: What about the viability, T/C (second compound 10 µM, first compound 10 µM) of the same compound?
Answer: 84.7%
